Data as given in the supplement of paper PMC10307832.

What was measured:
Experiment in all cases: relative viability (nuclei count vs DMSO), 5 days (fraction); higher = more cells survive
Ponatinib + Phenformin = compound: Cc1ccc(C(=O)Nc2ccc(CN3CCN(C)CC3)c(C(F)(F)F)c2)cc1C#Cc1cnc2cccnn12 [Ponatinib] + N=C(N)NC(=N)NCCc1ccccc1 [Phenformin] (partner 250 µM)
How it was run: (§1)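 Relative viability is defined as nuclei in treated wells over nuclei in vehicle wells. Duplicate plates were run and medians reported. Lung cancer cell lines in 1536-well plates were dosed by pin tool one day after seeding, with one drug or with a fixed anchor-drug dose plus five library-drug doses (not always all listed) in √10 steps, and nuclei were counted after 5 days.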

Ponatinib + OSI-027 = compound: Cc1ccc(C(=O)Nc2ccc(CN3CCN(C)CC3)c(C(F)(F)F)c2)cc1C#Cc1cnc2cccnn12 [Ponatinib] + COc1cccc2cc(-c3nc([C@H]4CC[C@H](C(=O)O)CC4)n4ncnc(N)c34)[nH]c12 [OSI-027] (partner 0.5 µM)
How it was run: as §1

Pazopanib + Luminespib = compound: Cc1ccc(Nc2nccc(N(C)c3ccc4c(C)n(C)nc4c3)n2)cc1S(N)(=O)=O [Pazopanib] + CCNC(=O)c1noc(-c2cc(C(C)C)c(O)cc2O)c1-c1ccc(CN2CCOCC2)cc1 [Luminespib] (partner 0.01 µM)
How it was run: as §1

Ponatinib + Linsitinib = compound: Cc1ccc(C(=O)Nc2ccc(CN3CCN(C)CC3)c(C(F)(F)F)c2)cc1C#Cc1cnc2cccnn12 [Ponatinib] + C[C@]1(O)C[C@@H](c2nc(-c3ccc4ccc(-c5ccccc5)nc4c3)c3c(N)nccn32)C1 [Linsitinib] (partner 1 µM)
How it was run: as §1

Cell Line | relative viability (Ponatinib + Phenformin; first compound 0.002 µM) | relative viability (Ponatinib + Phenformin; first compound 0.006325 µM) | relative viability (Ponatinib + Phenformin; first compound 0.06325 µM) | relative viability (Ponatinib + Phenformin; first compound 0.2 µM) | relative viability (Ponatinib + OSI-027; first compound 0.002 µM) | relative viability (Ponatinib + OSI-027; first compound 0.006325 µM) | relative viability (Ponatinib + OSI-027; first compound 0.06325 µM) | relative viability (Ponatinib + OSI-027; first compound 0.2 µM) | relative viability (Pazopanib + Luminespib; first compound 0.01 µM) | relative viability (Pazopanib + Luminespib; first compound 0.03162 µM) | relative viability (Pazopanib + Luminespib; first compound 0.1 µM) | relative viability (Pazopanib + Luminespib; first compound 0.3162 µM) | relative viability (Pazopanib + Luminespib; first compound 1 µM) | relative viability (Ponatinib + Linsitinib; first compound 0.002 µM) | relative viability (Ponatinib + Linsitinib; first compound 0.006325 µM) | relative viability (Ponatinib + Linsitinib; first compound 0.06325 µM) | relative viability (Ponatinib + Linsitinib; first compound 0.2 µM)
HCC-44 | 0.22 | 0.225 | 0.207 | 0.151 | 0.482 | 0.413 | 0.402 | 0.408 | 1.11 | 1.07 | 1.07 | 1.04 | 1.12 | 0.657 | 0.71 | 0.744 | 0.683
HCC-827 | 0.411 | 0.429 | 0.416 | 0.348 | 0.681 | 0.833 | 0.739 | 0.702 | 0.369 | 0.778 | 0.747 | 0.603 | 0.46 | 1.03 | 0.968 | 1.03 | 0.966
NCI-H1623 | 0.567 | 0.606 | 0.611 | 0.627 | 0.446 | 0.432 | 0.418 | 0.447 | 0.465 | 0.515 | 0.512 | 0.479 | 0.634 |  |  |  | 
NCI-H2405 | 0.359 | 0.44 | 0.386 | 0.329 | 0.613 | 0.642 | 0.605 | 0.631 | 0.728 | 0.837 | 0.821 | 0.815 | 0.73 | 0.98 | 0.958 | 0.903 | 0.712
PC-3 [JPC-3] | 0.461 | 0.502 | 0.502 | 0.477 | 0.745 | 0.76 | 0.754 | 0.69 | 0.784 | 0.59 | 0.65 | 0.69 | 0.65 | 0.981 | 0.984 | 0.992 | 0.956
NCI-H1651 | 0.301 | 0.373 | 0.299 | 0.265 | 0.639 | 0.638 | 0.825 | 0.66 | 0.853 | 0.869 | 0.785 | 0.741 | 0.878 | 0.906 | 0.978 | 1.09 | 0.932
HARA | 0.446 | 0.437 | 0.44 | 0.388 | 0.435 | 0.497 | 0.476 | 0.393 | 0.548 | 0.704 | 1.09 | 0.76 | 0.839 | 0.916 | 0.916 | 0.976 | 0.944
NCI-H1650 | 0.454 | 0.521 | 0.389 | 0.37 | 0.611 | 0.66 | 0.748 | 0.568 | 0.195 | 0.189 | 0.235 | 0.195 | 0.187 |  |  |  | 
NCI-H1793 | 0.33 | 0.324 | 0.397 | 0.326 | 0.281 | 0.256 | 0.273 | 0.175 |  | 0.235 | 0.198 | 0.186 | 0.235 | 0.815 | 0.924 | 0.964 | 0.762
NCI-H2347 | 0.34 | 0.393 | 0.38 | 0.34 | 0.373 | 0.421 | 0.371 | 0.239 | 0.299 | 0.453 | 0.898 | 0.309 | 0.471 | 0.913 | 0.918 | 1.05 | 0.974
HCC-78 | 0.601 | 0.614 | 0.673 | 0.669 | 0.332 | 0.418 | 0.366 | 0.528 |  |  |  |  |  | 0.412 | 0.519 | 0.605 | 0.478
NCI-H522 | 0.697 | 0.657 | 0.653 | 0.56 | 0.641 | 0.683 | 0.65 | 0.578 |  | 0.912 | 1.13 | 1.06 | 1.07 |  |  |  | 
SW 900 | 0.491 | 0.496 | 0.682 | 0.416 | 0.465 | 0.575 | 0.623 | 0.577 | 0.153 | 0.177 | 0.177 | 0.177 | 0.164 |  |  |  | 
A549 | 0.161 | 0.142 | 0.142 | 0.147 |  |  |  |  |  |  |  |  |  | 0.612 | 0.632 | 0.688 | 0.591
NCI-H1703 |  |  |  |  |  |  |  |  |  |  |  |  |  | 0.641 | 0.827 | 0.364 | 0.25
ChaGo-K-1 | 0.423 | 0.447 | 0.477 | 0.466 | 0.465 | 0.594 | 0.571 | 0.493 | 0.632 | 0.595 | 0.586 | 0.492 | 0.574 |  |  |  | 
Calu-6 |  |  |  |  |  |  |  |  |  |  |  |  |  | 0.956 | 0.964 | 0.932 | 0.747
HCC-366 | 0.602 | 0.587 | 0.622 | 0.515 | 0.821 | 0.984 | 1 | 0.655 |  |  |  |  |  | 0.699 | 0.701 | 1.02 | 0.606
NCI-H2170 | 0.391 | 0.365 | 0.432 | 0.419 | 0.698 | 0.724 | 0.749 | 0.694 | 0.675 | 0.766 | 0.712 | 0.532 | 0.627 |  |  |  | 
NCI-H1648 |  |  |  |  | 0.249 | 0.299 | 0.261 | 0.282 |  |  |  |  |  |  |  |  | 
EBC-1 |  |  |  |  |  |  |  |  |  |  |  |  |  | 0.857 | 0.983 | 0.985 | 0.927
NCI-H1299 |  |  |  |  |  |  |  |  |  |  |  |  |  | 0.915 | 0.948 | 0.971 | 0.951
NCI-H2342 | 0.5 | 0.488 | 0.538 | 0.595 | 0.557 | 0.602 | 0.53 | 0.637 | 0.671 | 0.736 | 0.612 | 0.759 | 0.588 |  |  |  | 
IA-LM |  |  |  |  |  |  |  |  |  |  |  |  |  | 0.538 | 0.512 | 0.529 | 0.535
